This passage reports IC50 results from patent US5773459A, “Urea- and thiourea-type compounds” (Sugen, Inc., priority 1995, dated 1998).

This test concerns HUV-EC-C cells (human umbilical vein endothelial cells). Nature of the test: HUV-EC-C Flk-1 assay (3H-thymidine incorporation). In kind it is cell-based. To be noted: Endothelial cell. The procedure:
The HUV-EC-C Flk-1 assay can be performed as follows:
1. Wash and trypsinize HUV-EC-C cells (human umbilical vein endothelial cells, American Type Culture Collection; catalogue no. 1730-CRL). Wash with Dulbecco's phosphate-buffered saline (D-PBS; obtained from Gibco BRL; catalogue no. 14190-029) 2 times at about 1 ml/10 cm^2 of tissue culture flask. Trypsinize with 0.05% trypsin-EDTA in non-enzymatic cell dissociation solution (Sigma Chemical Company; catalogue no. C-1544). The 0.05% trypsin was made by diluting 0.25% trypsin/l mM EDTA (Gibco; catalogue no. 25200-049) in the cell dissociation solution. Trypsinize with about 1 ml/25-30 cm^2 of tissue culture flask for about 5 minutes at 37° C. After cells have detached from the flask, add an equal volume of D-PBS and transfer to a 50 ml sterile centrifuge tube (Fisher Scientific; catalogue no. 05-539-6).
2. Wash the cells with about 35 ml D-PBS in the 50 ml sterile centrifuge tube by adding the D-PBS, centrifuge for 10 minutes at approximately 200×g, aspirate the supernatant, and resuspend with 35 ml D-PBS. Repeat the wash two more times, resuspend the cells in about 1 ml assay medium/15 cm^2 of tissue culture flask. Assay medium consists of F12K medium (Gibco BRL; catalogue no. 21127-014)+0.5% heat-inactivated fetal bovine serum. […]
(In general: Incorporation of labelled thymidine or its analogues reports DNA synthesis.)

Like-named read-outs stand apart in the source and are kept apart here.

`CC(C)S(=O)(=O)c1csc(NC(=O)Nc2ccc(C(C)(C)C)cc2)c1Cl` [Example Z1, N-[3-Chloro-4-(isopropylsulfonyl)thien-2-yl]-N'-(4-t-butylphenyl)urea]: the IC50 was 2.9 µM (VEGF stimulated, read-out: GROWTH DATA: HUV-EC-C/VEGF) and 30 µM (aFGF stimulated, read-out: GROWTH DATA: HUV-EC-C/aFGF).
